Patent US10017501B2, “Benzimidazole derivatives as bromodomain inhibitors” (Gilead Sciences, Inc., priority 2013, dated 2018)
pEC50: −log10 of the molar value. Like-named read-outs stand apart in the source and are kept apart here.

Legend:
MT-4 cells = assay: MT-4 proliferation assay; format: cell-based, human; settings: Homo sapiens, MT4, 120 h; for pEC50: 5 days, Cell Titer Glo, read-out: MT4 Assay (EC50); for EC50: read-out: MT4 Assay (EC50, nM)
Description: MT-4 Proliferation Assay:
Compounds were tested in a standardized high-throughput 384-well assay format. Each compound was serially diluted 3-fold in 100% DMSO in polypropylene 384-well plates using a Biomek FX Workstation, and 0.4 μL compound added to an assay plate containing 40 μL RPMI media. Compounds were arranged in a horizontal pattern, with 10 concentrations per compound, and 8 compounds added per plate. Due to low DMSO tolerability, the final DMSO concentration never exceeded 0.5% (v/v). Each assay plate contained 10 μM Puromycin and 0.5% DMSO in RPMI-1640 as positive and negative controls respectively. MT-4 cells (HTLV-1 transformed, human T lymphoblastoid cells, NIH Aids Reagent program) were added in volumes of 35 μL per well and 2,000 cells per well using a Biotek uFlow Workstation (Biotek, Winooski, Vt.), and the plates subsequently incubated for 5 days at 37° C. in an incubator set at 5% CO2 and 90% humidity.
After 5 days, 22 μL Cell Titer Glo (Promega) was added to the assay plates with a Biotek uFlow Workstation. Plates were subsequently placed on a Perkin Elmer Envision Plate Reader for 5 minutes before the luminescence signal was read.

[1] = test system: c-Myc produced in MM.1S cells; assay: c-Myc down regulation assay (MSD); format: cell-based; settings: Homo sapiens, MM1.S, 24 hrs
Description: (§1) c-Myc Down Regulation and MM.1S Viability Assays:
An enzyme linked immunosorbent assay using the Meso Scale Diagnostic (MSD) technology was used to detect levels of c-Myc produced in MM.1S cells (ATCC). MM.1S cells were cultured in RPMI-1640 media (Corning), supplemented with 10% FBS (Hyclone), 1% penicillin-streptomycin (Cellgro), 2-mercaptoethanol (Gibco) and seeded onto 384-tissue culture treated filter binding plates (Millipore) at a density of 40K cells/well containing titrations of small molecule inhibitors or DMSO (0.4%) in a volume of […] of media. After an incubation time of 24 hrs, cells were lysed (1× lysis buffer (Thermo) supplemented with protease and phosophatase inhibitor cocktail (Thermo)) and the plates centrifuged (1000 rpm, 1 min) to capture c-Myc on MSD plates coated with a monoclonal c-Myc antibody (Origene). Assay wells were washed (3× Invitrogen wash buffer) and probed with a polyclonal c-Myc antibody (Abcam) and MSD detection antibody solution in order to detect levels of c-Myc on the MSD platform. c-Myc capture was reported in pg/ml based on a standard curve using recombinant c-Myc protein (Prosci). EC50 values were calculated from the fit of the dose-response curves to a four-parameter equation. All EC50 values represent geometric mean values of a minimum of four determinations. These assays generally produced results within 3-fold of the reported mean.

MM.1S cells = assay: MM.1S viability assay (CellTiter Glo); format: cell-based; settings: Homo sapiens, MM1.S, 72 hr, read-out: MM.1S Cell viability (EC50)
Description: as §1
For cell viability in the MM.1S cell line, cells were seeded onto 384-tissue culture treated plates (Greiner) at a density of 60K cells/well containing titrations of small molecule inhibitors or DMSO (0.2%). After 72 hr incubation cells were analyzed for cell viability by addition of CellTiter Glo (Promega) to the assay plates. After 15 min incubation at room temperature the signal from the viable cells was analyzed on an Envision plate reader (Perkin Elmer). EC50 values were calculated from the fit of the dose-response curves to a four-parameter equation. All EC50 values represent geometric mean values of a minimum of four determinations. These assays generally produced results within 3-fold of the reported mean.

In the case of `Cc1noc(C)c1-c1cc(C(O)(c2cccnn2)C2CCC(C)(C)O2)c2nc(C3CC3)[nH]c2c1` (single isomer, unassigned) [Compound 1020-298, (2-cyclopropyl-6-(3,5-dimethylisoxazol-4-yl)-1H-benzo[d]imidazol-4-yl)(5,5-dimethyltetrahydrofuran-2-yl)(pyridazin-3-yl)methanol], the pEC50 (MT-4 cells; Table 2) was 8.25, the pEC50 [1] was 7.82 and the pEC50 (MM.1S cells) was 7.77.

`Cc1noc(C)c1-c1cc(C(O)(c2nccs2)c2nccs2)c2nc(C3CC3)[nH]c2c1` [Compound 1020-103, (2-cyclopropyl-6-(3,5-dimethylisoxazol-4-yl)-1H-benzo[d]imidazol-4-yl)di(thiazol-2-yl)methanol] was tested, and the pEC50 (MT-4 cells; Table 2) was 8.00, the pEC50 [1] was 7.43 and the pEC50 (MM.1S cells) was 7.14.

`Cc1noc(C)c1-c1cc(C(O)(c2ncccn2)c2ccc(F)cc2F)c2nc(C3CC3)[nH]c2c1` (centres unmarked) [Compound 1020-257, (2-Cyclopropyl-6-(3,5-dimethylisoxazol-4-yl)-1H-benzo[d]imidazol-4-yl)(2,4-difluorophenyl)(pyrimidin-2-yl)methanol] was tested, and the pEC50 (MT-4 cells; Table 2) was 7.85, the pEC50 [1] was 7.25 and the pEC50 (MM.1S cells) was 7.55.

`Cc1noc(C)c1-c1cc(C(O)(c2ccccn2)c2ccccn2)c2nc(C3CC3)[nH]c2c1F` [Compound 1020-224, (2-cyclopropyl-6-(3,5-dimethylisoxazol-4-yl)-7-fluoro-1H-benzo[d]imidazol-4-yl)di(pyridin-2-yl)methanol] showed a pEC50 (MT-4 cells; Table 2) of 7.69, a pEC50 [1] of 6.98 and a pEC50 (MM.1S cells) of 7.08.

In the case of `Cc1noc(C)c1-c1cc(C(O)(c2ccccc2)c2cccnc2)c2nc(C3CC3)[nH]c2c1` (centres unmarked) [Compound 1020-112, (2-cyclopropyl-6-(3,5-dimethylisoxazol-4-yl)-1H-benzo[d]imidazol-4-yl)(phenyl)(pyridin-3-yl)methanol], the pEC50 (MT-4 cells; Table 2) was 7.74, the pEC50 [1] was 7.25 and the pEC50 (MM.1S cells) was 6.84.

Compound `Cc1cccc(C(O)(c2cc(-c3c(C)noc3C)cc3[nH]c(C4CC4)nc23)C2CCCO2)n1` (racemic) [Compound 1020-114, (2-cyclopropyl-6-(3,5-dimethylisoxazol-4-yl)-1H-benzo[d]imidazol-4-yl)(6-methylpyridin-2-yl)(tetrahydrofuran-2-yl)methanol] has an EC50 (MT-4 cells) of 2.5 nM, a pEC50 [1] of 8.32 and a pEC50 (MM.1S cells) of 7.67.

For `Cc1noc(C)c1-c1cc(C(O)(c2ccccn2)c2ccccn2)c2nc(C3CC3)[nH]c2c1` [Compound 1020-104, (2-cyclopropyl-6-(3,5-dimethylisoxazol-4-yl)-1H-benzo[d]imidazol-4-yl)di(pyridin-2-yl)methanol], the pEC50 (MT-4 cells; Table 2) was 7.90, the pEC50 [1] was 7.29 and the pEC50 (MM.1S cells) was 7.26.

In the case of `Cc1n[nH]c(C)c1-c1cc(-c2c(C)noc2C)cc2nc(N)[nH]c12` [Compound 1020-96, 4-(3,5-Dimethyl-1H-pyrazol-4-yl)-6-(3,5-dimethylisoxazol-4-yl)-1H-benzo[d]imidazol-2-amine], the pEC50 (MT-4 cells; Table 1) was 6.50.

`Cc1noc(C)c1-c1cc(NC2CCCC2)c2nc(C3CC3)[nH]c2c1` [Compound 1020-50, N-Cyclopentyl-2-cyclopropyl-6-(3,5-dimethylisoxazol-4-yl)-1H-benzo[d]imidazol-4-amine] was tested, and the pEC50 (MT-4 cells; Table 1) was 6.45.

`Cc1noc(C)c1-c1cc(C(C)c2ccc(F)cc2)c2[nH]c(C3CC3)nc2c1` (centres unmarked) [Compound 1020-44, 4-(2-Cyclopropyl-4-(1-(4-fluorophenyl)ethyl)-1H-benzo[d]imidazol-6-yl)-3,5-dimethylisoxazole] showed a pEC50 (MT-4 cells; Table 1) of 7.06.

`Cc1ccnc(C)c1-c1cc(-c2c(C)noc2C)cc2[nH]cnc12` [Compound 1020-84, 4-(4-(2,4-Dimethylpyridin-3-yl)-1H-benzo[d]imidazol-6-yl)-3,5-dimethylisoxazole] showed a pEC50 (MT-4 cells; Table 1) of 6.63.

Work on `CC/C=C(\CC)c1cc(-c2c(C)noc2C)cc2nc(C3CC3)[nH]c12` [Compound 1020-28, (E)-4-(2-Cyclopropyl-4-(hex-3-en-3-yl)-1H-benzo[d]imidazol-6-yl)-3,5-dimethylisoxazole] yielded a pEC50 (MT-4 cells; Table 1) of 7.29.

`Cc1noc(C)c1-c1cc(S(=O)(=O)NC2CCCC2)c2nc(NCC3CC3)[nH]c2c1` [Compound 1020-1, N-Cyclopentyl-2-(cyclopropylmethylamino)-6-(3,5-dimethylisoxazol-4-yl)-1H-benzo[d]imidazole-4-sulfonamide] was tested, and the pEC50 (MT-4 cells; Table 1) was 6.71.

`Cc1nc2cc(-c3c(C)noc3C)cc(-c3c(C)n[nH]c3C)c2[nH]1` [Compound 1020-77, 4-(7-(3,5-Dimethyl-1H-pyrazol-4-yl)-2-methyl-1H-benzo[d]imidazol-5-yl)-3,5-dimethylisoxazole] gave a pEC50 (MT-4 cells; Table 1) of 7.40.

`Cc1noc(C)c1-c1cc(S(=O)(=O)NC2CCCC2)c2nc(Cc3ccccc3)[nH]c2c1` [Compound 1020-141, 2-Benzyl-N-cyclopentyl-6-(3,5-dimethylisoxazol-4-yl)-1H-benzo[d]imidazole-4-sulfonamide] was tested, and the pEC50 (MT-4 cells; Table 1) was 6.05.

`Cc1noc(C)c1-c1cc(N2C(=O)CCC2C)c2nc(C3CC3)[nH]c2c1` (centres unmarked) [Compound 1020-136, 1-(2-Cyclopropyl-6-(3,5-dimethylisoxazol-4-yl)-1H-benzo[d]imidazol-4-yl)-5-methylpyrrolidin-2-one] gave a pEC50 (MT-4 cells; Table 1) of 6.47.

Work on `Cc1cnn(C)c1-c1cc(-c2c(C)noc2C)cc2nc(C3CC3)[nH]c12` [Compound 1020-12, 4-(2-Cyclopropyl-7-(1,4-dimethyl-1H-pyrazol-5-yl)-1H-benzo[d]imidazol-5-yl)-3,5-dimethylisoxazole] yielded a pEC50 (MT-4 cells; Table 1) of 7.67.

`Cc1ccc2ncccc2c1-c1cc(-c2c(C)noc2C)cc2[nH]c(C(F)(F)F)nc12` [Compound 1020-92, 3,5-Dimethyl-4-(4-(6-methylquinolin-5-yl)-2-(trifluoromethyl)-1H-benzo[d]imidazol-6-yl)isoxazole] gave a pEC50 (MT-4 cells; Table 1) of 7.14.

Compound `Cc1noc(C)c1-c1cc(S(=O)(=O)NC2CCCC2)c2nc([S+](C)[O-])[nH]c2c1` (centres unmarked) [Compound 1020-5, N-Cyclopentyl-6-(3,5-dimethylisoxazol-4-yl)-2-(methylsulfinyl)-1H-benzo[d]imidazole-4-sulfonamide] has an EC50 (MT-4 cells) of 329 nM.

With `CSc1nc2c(S(=O)(=O)NC3CCCC3)cc(-c3c(C)noc3C)cc2[nH]1` [Compound 1020-4, N-Cyclopentyl-6-(3,5-dimethylisoxazol-4-yl)-2-(methylthio)-1H-benzo[d]imidazole-4-sulfonamide] the pEC50 (MT-4 cells; Table 1) was 6.72.

`CCC(CC)c1cc(-c2c(C)noc2C)cc2[nH]c(C3CC3)nc12` [Compound 1020-120, 4-(2-Cyclopropyl-4-(pentan-3-yl)-1H-benzo[d]imidazol-6-yl)-3,5-dimethylisoxazole] was tested, and the pEC50 (MT-4 cells; Table 1) was 7.31.

`Cc1noc(C)c1-c1cc(-c2cccnc2-c2ccccc2)c2nc(C3CC3)[nH]c2c1` [Compound 1020-19, 4-(2-Cyclopropyl-4-(2-phenylpyridin-3-yl)-1H-benzo[d]imidazol-6-yl)-3,5-dimethylisoxazole] was tested, and the pEC50 (MT-4 cells; Table 1) was 7.61.

With `Cc1n[nH]c(C)c1-c1cc(-c2c(C)noc2C)cc2[nH]c(NC3CC3)nc12` [Compound 1020-81, N-Cyclopropyl-4-(3,5-dimethyl-1H-pyrazol-4-yl)-6-(3,5-dimethylisoxazol-4-yl)-1H-benzo[d]imidazol-2-amine] the pEC50 (MT-4 cells; Table 1) was 8.12.

In the case of `CCC1CCC(=O)N1c1cc(-c2c(C)noc2C)cc2[nH]c(C3CC3)nc12` (centres unmarked) [Compound 1020-137, 1-(2-Cyclopropyl-6-(3,5-dimethylisoxazol-4-yl)-1H-benzo[d]imidazol-4-yl)-5-ethylpyrrolidin-2-one], the pEC50 (MT-4 cells; Table 1) was 6.95.
